Test results as given in paper PMC5431435, “A short artificial antimicrobial peptide shows potential to prevent or treat bone infections” (Scientific Reports, 2017).

Key:
Type in all cases: cell-based, Staphylococcus aureus
planktonic S. aureus = assay: MIC by isothermal microcalorimetry, planktonic bacteria; details: all three tested bouillons (MH++, MH+, MH−), heat flow 24 hours, n = 3
Procedure: Mueller-Hinton II bouillon with adjusted cations (MH^++; BBL, Germany), Mueller-Hinton bouillon with low cations (MH^+; with 3-4 mg/l Ca^2+ and 5-6 mg/l Mg^2+; Oxoid, Germany) and Mueller-Hinton bouillon without cations (MH^-; Merck, Germany). AMP2 concentrations of 2-33 μg/ml were tested with the three different bouillons and gentamicin concentrations of 0.125-2 μg/ml were analyzed with MH^++. Staphylococcus aureus (ATCC 29213, 300 μl with 10^5 cfu/ml) was added to each microcalorimetry glass ampoule (Waters; […] The ampoules were hermetically sealed and heat flow (W) was measured for 24 hours in the calorimeter TAM III (TA Instruments, USA). […] ROBU […], Germany) in MH^++ bouillon at 37 °C in an aerobe atmosphere for 24 hours. […] Beads were washed again and added to the glass ampoule with fresh MH^++ bouillon. The total heat (J) was measured for 48 hours in the calorimeter. A concentration, which inhibits minimum 90% of biofilm, can be defined as the minimal biofilm inhibitory concentration (MICB). All samples were tested with n = 6.

S. aureus biofilm = assay: Biofilm assay by microcalorimetry and plating (MBCB); details: for inhibition of the biofilm compared to the growth control: MH++, n = 6
Procedure: To confirm MIC of the AMP2 by isothermal microcalorimetry, three different bouillons were tested: Mueller-Hinton II bouillon with adjusted cations (MH^++; BBL, Germany), Mueller-Hinton bouillon with low cations (MH^+; with 3–4 mg/l Ca^2+ and 5–6 mg/l Mg^2+; Oxoid, Germany) and Mueller-Hinton bouillon without cations (MH^−; Merck, Germany). AMP2 concentrations of 2–33 µg/ml were tested with the three different bouillons and gentamicin concentrations of 0.125–2 µg/ml were analyzed with MH^++. Staphylococcus aureus (ATCC 29213, 300 µl with 10^5 cfu/ml) was added to each microcalorimetry glass ampoule (Waters; Germany) containing 3.7 ml of AMP or gentamicin solution of (n = 3). The ampoules were hermetically sealed and heat flow (W) was measured for 24 hours in the calorimeter TAM III (TA Instruments, USA). For the biofilm assay, S. aureus biofilm was grown on glass beads (4 mm diameter, 60 µm pores; ROBU Glasfilter-Geräte, Germany) in MH^++ bouillon at 37 °C in an aerobe atmosphere for 24 hours. After washing with sodium chloride, beads were incubated with AMP2 (133, 267, 533 µg/ml) or daptomycin (128 µg/ml) in MH^++ bouillon for another 24 hours at 37 °C. Beads were washed again and added to the glass ampoule with fresh MH^++ bouillon. The total heat (J) was measured for 48 hours in the calorimeter. A concentration, which inhibits minimum 90% of biofilm, can be defined as the minimal biofilm inhibitory concentration (MICB). All samples were tested with n = 6.
Furthermore, the MBC for biofilms (MBCB) where 99.9% of all bacteria are killed was determined. After measurement, bouillon and glass beads were plated on CA plates and incubated for 24 hours at 37 °C in an aerobe atmosphere.

S. aureus (ATCC 29213) = assay: Zone of inhibition test of PDLLA-coated titanium wires; details: 10, 20, 30% w/w in poly(D,L-lactide) coating, n = 3
Procedure: Titanium wires (diameter 1 mm, Synthes, USA) were coated with Poly(D,L-lactide) (PDLLA, Boehringer Ingelheim, Germany) and incorporated AMP2 at three different concentrations: 10% w/w, 20% w/w, or 30% w/w. Gentamicin/PDLLA (10% w/w) or PDLLA coated wires served as control. Briefly, 100 mg PDLLA was solved in 1.5 ml ethyl acetate and the wires were coated in a dipping procedure. Details of the coating were described previously. Three nails of each group were placed on Mueller-Hinton agar plates plated with S. aureus (ATCC 29213) and the zone of inhibition (ZOI) was quantified after 1, 3, 7, and 14 days using ImageJ software.

KRRWRIWLV [AMP2, 9mer cationic antimicrobial peptide … from an optimized peptide library]
MIC (calorimetry) (planktonic S. aureus): 8 µg/mL | inhibition of the biofilm compared to the growth control (S. aureus biofilm; 133 µg/ml AMP2, total heat after 48 hours): 13 ± 4% | inhibition of the biofilm, single samples (S. aureus biofilm; 267 µg/ml AMP2, five of the six samples (the sixth completely killed the bacteria)): 18–38% | inhibition of the biofilm compared to the growth control (S. aureus biofilm; 267 µg/ml AMP2, total heat after 48 hours): 35 ± 29% | killing of the biofilm (MBCB determination by plating samples and glass beads) (S. aureus biofilm; 533 µg/ml AMP2, all samples, no growth on agar plates): totally killed | inhibition of the biofilm compared to the growth control (S. aureus biofilm; 533 µg/ml AMP2, total heat after 48 hours): 97 ± 1% | Zone of Inhibition, activity of incorporated peptide (S. aureus (ATCC 29213)): inhibited the growth of S. aureus in a dose dependent manner
